Data as given in PubChem BioAssay (NCI).
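Method: 48-hour compound exposure of cells in 96-well plates, five concentrations, linear interpolation of endpoints. The concentration for 50% growth inhibition is given as GI50. TGI: total growth inhibition.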

How the values were obtained:
Assay in all cases: NCI tumour cell line growth inhibition, 48 h
[1] = tested on: 786-0 renal
[2] = tested on: SK-MEL-5 melanoma
[3] = tested on: SN12C renal
[4] = tested on: HCC-2998 colon
[5] = tested on: U251 CNS
[6] = tested on: OVCAR-4 ovarian
[7] = tested on: SF-539 CNS
[8] = tested on: CAKI-1 renal
[9] = tested on: RPMI-8226 leukemia
[10] = tested on: MDA-MB-435
[11] = tested on: NCI-H226 lung
[12] = tested on: HOP-62 NSCLC
[13] = tested on: COLO 205 colon
[14] = tested on: CCRF-CEM leukemia
[15] = tested on: SNB-19 CNS
[16] = tested on: EKVX NSCLC
[17] = tested on: BT-549 breast
[18] = tested on: LOX IMVI melanoma
[19] = tested on: HCT-116 colon
[20] = tested on: SR leukemia
[21] = tested on: M14 melanoma
[22] = tested on: HOP-92 NSCLC
[23] = tested on: HCT-15 colon
[24] = tested on: SF-268 CNS
[25] = tested on: OVCAR-5 ovarian
[26] = tested on: A549 NSCLC
[27] = tested on: NCI-H522 lung
[28] = tested on: UACC-62 melanoma
[29] = tested on: HL-60(TB) leukemia
[30] = tested on: SK-MEL-28 melanoma
[31] = tested on: KM12 colon
[32] = tested on: OVCAR-3 ovarian
[33] = tested on: SNB-75 CNS
[34] = tested on: MDA-MB-468 breast
[35] = tested on: HT29 colon
[36] = tested on: SW-620 colon
[37] = tested on: PC-3 prostate
[38] = tested on: MOLT-4 leukemia
[39] = tested on: MALME-3M melanoma
[40] = tested on: DU-145 prostate
[41] = tested on: RXF 393 renal
[42] = tested on: IGROV1 ovarian
[43] = tested on: OVCAR-8 ovarian
[44] = tested on: UACC-257 melanoma
[45] = tested on: UO-31 renal
[46] = tested on: HS 578T breast
[47] = tested on: NCI-H23 lung
[48] = tested on: NCI-H460 lung
[49] = tested on: A498 renal
[50] = tested on: ACHN renal
[51] = tested on: MCF7 breast
[52] = tested on: SF-295 CNS
[53] = tested on: T-47D breast
[54] = tested on: TK-10 renal
[55] = tested on: K-562 leukemia
[56] = tested on: SK-OV-3 ovarian
[57] = tested on: MDA-MB-231 breast
[58] = tested on: SK-MEL-2 melanoma
[59] = tested on: NCI/ADR-RES ovarian

## CCC(C)(C)c1ccc(OCCCCCCN2CCN(c3ccncc3)CC2)cc1
[1]
  GI50: 1.67 µM
  TGI: 3.15 µM
[2]
  GI50: 1.79 µM
  TGI: 3.58 µM
[3]
  GI50: 10.2 µM
  TGI: 22.4 µM
[4]
  GI50: 1.87 µM
  TGI: 3.5 µM
[5]
  GI50: 3.06 µM
  TGI: 11.8 µM
[6]
  GI50: 6.33 µM
  TGI: 21 µM
[7]
  GI50: 1.84 µM
  TGI: 3.91 µM
[8]
  GI50: 4.97 µM
  TGI: 18.6 µM
[9]
  GI50: 2.06 µM
  TGI: 4.98 µM
[10]
  GI50: 2.5 µM
  TGI: 8.34 µM
[11]
  GI50: 10.6 µM
  TGI: 23.7 µM
[12]
  GI50: 6.77 µM
  TGI: 23.8 µM
[13]
  GI50: 1.66 µM
  TGI: 3.33 µM
[14]
  GI50: 2.02 µM
  TGI: 10.3 µM
[15]
  GI50: 8.19 µM
  TGI: 22.2 µM
[16]
  GI50: 4.14 µM
  TGI: 16.5 µM
[17]
  GI50: 3.07 µM
  TGI: 12.2 µM
[18]
  GI50: 1.81 µM
  TGI: 3.4 µM
[19]
  GI50: 1.6 µM
  TGI: 3.85 µM
[20]
  GI50: 2.13 µM
  TGI: 9.38 µM
[21]
  GI50: 1.58 µM
  TGI: 3.39 µM
[22]
  GI50: 2.17 µM
  TGI: 15.4 µM
[23]
  GI50: 1.75 µM
  TGI: 3.88 µM
[24]
  GI50: 11.8 µM
  TGI: 27.9 µM
[25]
  GI50: 13.4 µM
  TGI: 26.2 µM
[26]
  GI50: 10.6 µM
  TGI: 26.6 µM
[27]
  GI50: 11.8 µM
  TGI: 26.5 µM
[28]
  GI50: 11.8 µM
  TGI: 24.9 µM
[29]
  GI50: 1.68 µM
  TGI: 4.06 µM
[30]
  GI50: 3.71 µM
  TGI: 13.3 µM
[31]
  GI50: 4.17 µM
  TGI: 15.9 µM
[32]
  GI50: 3.86 µM
  TGI: 16.2 µM
[33]
  GI50: 8.03 µM
  TGI: 22.4 µM
[34]
  GI50: 1.76 µM
  TGI: 3.65 µM
[35]
  GI50: 2.49 µM
  TGI: 8.86 µM
[36]
  GI50: 1.66 µM
  TGI: 3.69 µM
[37]
  GI50: 3.63 µM
  TGI: 16.2 µM
[38]
  GI50: 3.14 µM
  TGI: 10.1 µM
[39]
  GI50: 5.26 µM
  TGI: 17.3 µM
[40]
  GI50: 5.27 µM
  TGI: 17.6 µM
[41]
  GI50: 1.89 µM
  TGI: 8.42 µM
[42]
  GI50: 10.8 µM
  TGI: 24.4 µM
[43]
  GI50: 10.2 µM
  TGI: 30.1 µM
[44]
  GI50: 10.7 µM
  TGI: 23.8 µM
[45]
  GI50: 10 µM
  TGI: 22.1 µM
[46]
  GI50: 7.73 µM
  TGI: 26.9 µM
[47]
  GI50: 3.65 µM
  TGI: 14 µM
[48]
  GI50: 2.08 µM
  TGI: 4.77 µM
[49]
  GI50: 17.9 µM
  TGI: 34.6 µM
[50]
  GI50: 6.33 µM
  TGI: 19.5 µM
[51]
  GI50: 1.73 µM
  TGI: 3.95 µM
[52]
  GI50: 1.9 µM
  TGI: 3.74 µM
[53]
  GI50: 2.63 µM
  TGI: 8.12 µM
[54]
  GI50: 14.6 µM
  TGI: 28.7 µM
[55]
  GI50: 1.52 µM
  TGI: 6.8 µM
[56]
  GI50: 14.4 µM
  TGI: 29.8 µM
[57]
  GI50: 3.16 µM
  TGI: 12.2 µM

## Cc1cc2nc3c4ccccc4n(CC4=NCCN4)c3nc2cc1C
[1]
  GI50: 3.48 µM
  TGI: 13.3 µM
[2]
  GI50: 6.62 µM
  TGI: 19.2 µM
[3]
  GI50: 1.59 µM
  TGI: 12.2 µM
[4]
  GI50: 2.69 µM
  TGI: 15.7 µM
[5]
  GI50: 1.25 µM
  TGI: 4.21 µM
[6]
  GI50: 5.76 µM
  TGI: 20.8 µM
[7]
  GI50: 1.59 µM
  TGI: 3.06 µM
[8]
  GI50: 1.38 µM
  TGI: 11.7 µM
[9]
  GI50: 2.55 µM
  TGI: 36 µM
[10]
  GI50: 3.67 µM
  TGI: 14.3 µM
[11]
  GI50: 1.44 µM
  TGI: 5 µM
[12]
  GI50: 2.34 µM
  TGI: 11.8 µM
[13]
  GI50: 3.11 µM
  TGI: 20.2 µM
[14]
  GI50: 2.37 µM
  TGI: 42.2 µM
[15]
  GI50: 3.21 µM
  TGI: 15.9 µM
[16]
  GI50: 10.3 µM
  TGI: 22.5 µM
[17]
  GI50: 6.52 µM
  TGI: 22.7 µM
[18]
  GI50: 1.19 µM
  TGI: 2.47 µM
[19]
  GI50: 1.5 µM
  TGI: 6.19 µM
[20]
  GI50: 0.523 µM
  TGI: 9.37 µM
[21]
  GI50: 3.1 µM
  TGI: 14.1 µM
[22]
  GI50: 2.84 µM
  TGI: 17.5 µM
[23]
  GI50: 3.44 µM
  TGI: 15.5 µM
[24]
  GI50: 4.81 µM
  TGI: 24 µM
[25]
  GI50: 2.62 µM
  TGI: 10.6 µM
[26]
  GI50: 1.28 µM
  TGI: 16.6 µM
[27]
  GI50: 1.86 µM
  TGI: 15.1 µM
[28]
  GI50: 1.91 µM
  TGI: 11.8 µM
[29]
  GI50: 3.06 µM
  TGI: 14.4 µM
[30]
  GI50: 7.93 µM
  TGI: 20.6 µM
[31]
  GI50: 5.51 µM
  TGI: 22.6 µM
[32]
  GI50: 5.89 µM
  TGI: 22.6 µM
[33]
  GI50: 1.49 µM
  TGI: 10.7 µM
[34]
  GI50: 2.06 µM
  TGI: 7.09 µM
[35]
  GI50: 1.52 µM
  TGI: 3.6 µM
[36]
  GI50: 0.997 µM
  TGI: 11.9 µM
[58]
  GI50: 15.9 µM
  TGI: 30.5 µM
[37]
  GI50: 1.75 µM
  TGI: > 100 µM
[38]
  GI50: 1.17 µM
  TGI: 6.54 µM
[39]
  GI50: 1.4 µM
  TGI: 2.85 µM
[40]
  GI50: 3.08 µM
  TGI: 14.4 µM
[42]
  GI50: 1.99 µM
  TGI: 15.4 µM
[43]
  GI50: 2.53 µM
  TGI: 19.3 µM
[44]
  GI50: 10.6 µM
  TGI: 25.3 µM
[45]
  GI50: 0.605 µM
  TGI: 6.49 µM
[59]
  GI50: 3.5 µM
  TGI: 17.8 µM
[46]
  GI50: 11.2 µM
  TGI: 29.7 µM
[47]
  GI50: 2.64 µM
  TGI: 13.1 µM
[48]
  GI50: 0.634 µM
  TGI: 1.93 µM
[49]
  GI50: 6.15 µM
  TGI: 20.9 µM
[50]
  GI50: 1.74 µM
  TGI: 5.3 µM
[51]
  GI50: 0.747 µM
  TGI: 12.5 µM
[52]
  GI50: 1.12 µM
  TGI: 10.7 µM
[53]
  GI50: 3.07 µM
  TGI: 15.5 µM
[54]
  GI50: 6.35 µM
  TGI: 20.7 µM
[55]
  GI50: 1.78 µM
  TGI: > 100 µM
[56]
  GI50: 2.43 µM
  TGI: 9.95 µM
[57]
  GI50: 2.01 µM
  TGI: 5.72 µM
